{"source": "patent US20220257571A1", "about": "“INHIBITOR OF MAP KINASE INTERACTING SERINE/THREONINE KINASE 1 (MNK1) AND MAP KINASE INTERACTING SERINE/THREONINE KINASE 2 (MNK2), CANCER THERAPY AND THERAPEUTIC COMBINATIONS” (FUNPACIÓ HOSPITAL UNIVERSITARI VALL D'HEBRON - INSTITUT DE …, priority 2019, published 2022)", "key": {"[1]": {"tested_on": "eIF4E phosphorylation in MCF10 cells", "assay": "inhibition of eIF4E phosphorylation by Western Blot in MCF10 cells", "type": "cell-based", "details": "Homo sapiens; immortalised non-tumour breast cells (MCF10)", "protocol": "(§1) MCF10A cells (also commercially available) were grown in DMEM/F-12 medium (Dulbecco's Modified Eagle Medium: 3.125 g/L D-Glucosa, 365 mg/L L-Glutamine, Nutrient Mixture F-12 (Gibco)) supplemented with 10% FBS, 100 U/ml penicillin, 100 μg/ml streptomycin, 1% L-Glutamine (Cambrex), 10 ng/ml choleric toxin (Sigma-Aldrich), 0.005 mg/ml insulin (Sigma), 100 ng/ml hydrocortisone (Sigma) and 20 ng/ml EGF (Epidermal growth factor, Sigma).\n(§2) Inhibition of eIF4E phosphorylation was quantified by Western Blot. Cells were seeded in 60 mm plates (700,000 cells for 24 h, 500,000 cells for 48 h and 300,000 cells for 72 h).\n(§3) After 24 h, the treatments were added. The stocks of compounds were prepared in […] at a concentration 200 times more concentrated than the treatment concentration. Thus, in all cases, the final concentration of DMSO in the medium was 0.5%.\nAfter incubation, proteins were removed and Western Blot was performed. […] The samples were centrifuged at 15,000 g and the supernatant was quantified by the Bradford method. […] Selectivity against MNK was analysed with ERK, p-ERK, MNK1, p-MNK1, 4EBP1 and p-4EBP1 antibodies."}, "[2]": {"tested_on": "PD-L1 in MDA-MB-231 cells", "assay": "PD-L1 levels by western blot in MDA-MB-231 cells", "type": "cell-based, human", "protocol": "MDA-MB-231 cells were treated for 48 h with the indicated concentrations of the inhibitors. DMSO was used as vehicle control. Protein extracts were prepared and western blot analysis were carried out. Data are depicted in FIG. 10."}, "[3]": {"tested_on": "22Rv1 castration resistant prostate cancer cells", "assay": "cell viability of 22Rv1 cells, EB1 with Enzalutamide", "type": "cell-based", "details": "22Rv1, co-treatment with Enzalutamide, 72 h", "protocol": "Cell viability under combined inhibition of AR and eIF4E phosphorylation was assayed. […] (B) Number of viable cells after 72 h treatment with pairwise combinations reported as percentage relative to control. (E) Cell viability data presented as a grid displaying the percentage of affected cells by each pairwise combination of drug doses. (C) Drug combinations with the strongest inhibition in cell viability (bars; mean±SEM; n=3. *p<0.05, **p<0.01 two-tailed Student's test). (F) Combination index (CI) presented as a grid for each pairwise combination of drug doses calculated by the Chou-Talalay method at non-constant ratio. (D and I) Fraction affected vs. combination index (CI) plots."}, "MDA-MB-231 cells": {"tested_on": "MDA-MB-231 cells", "assay": "in vitro proliferation assay (crystal violet), MDA-MB-231", "type": "cell-based, human", "details": "tumour cells MDA-MB-231, concentrations necessary to inhibit MNK activity", "protocol": "(§4) Commercially available MDA-MB-231, MDA-MB-468, MCF7 and A375M, IMR90 (IMR-90 (ATCC® CCL-186TH) cells were grown at 37° C. and 5% CO2 in DMEM medium (Dulbecco's Modified Eagle Medium, 4.5 g/I glucose; 30 mg/I L-Glutamine (Gibco)) supplemented with 10% foetal bovine serum, 100 U/ml penicillin and 100 μg/ml streptomycin.\n(§5) In 96-well plates, 5000 cells were seeded for each condition. After 24 h, the cells were treated with the compound at the corresponding concentration. The stocks of compounds were prepared in 100% DMSO at a concentration 200 times more concentrated than the treatment concentration. Thus, in all cases, the final concentration of DMSO in the medium is 0.5%. After incubation, the medium was removed and the cells were fixed with 4% PFA (100 μl per well) for 30 minutes. Two washes with PBS were performed.\n(§6) Cells were stained with crystal violet (0.5% in EtOH): 100 μl were added to each well, stirred for 15 minutes, washed with water and left to dry. The content of each well was dissolved in 200 μl of 15% AcOH and the absorbance thereof was measured at 595 nm."}, "[4]": {"tested_on": "IMR90 cells, non-transformed fibroblasts", "assay": "cell growth (crystal violet) and cell death (PI/Hoechst) in IMR90 cells", "type": "cell-based", "protocol": "as §4\nKnock-out mice of the EB1 target kinases MNK1 and MNK2 are viable (Ueda et al 2004; PMID: 15254222). […] Cell growth was measured by crystal violet assay. Cell death was determined by Propidium Iodid (PI)/Hoechst staining and the ratio of dead cell (PI positive) among all analyzed cells (Hoechst) was determined. Cis-platin treatment was included as positive control. […] Minimal side effects for patients are therefore predictable."}, "[5]": {"tested_on": "eIF4E phosphorylation in leukaemia cells (MV4-11)", "assay": "titration of eIF4E phosphorylation in MV4-11 cells", "type": "cell-based", "protocol": "MV4-11 cells were grown in IMDM medium (Iscove's Modified Dulbecco's Medium, Gibco) supplemented with 10% FBS, 1% L-glutamine, 100 U/ml penicillin and 100 μg/ml streptomycin.\nas §2, §3\nAfter incubation, proteins were removed and Western Blot was performed. On ice, the plates were washed with PBS and the cells were lysed with 60 μl lysis buffer (50 mM Tris, 200 mM NaCl, 5 mM EDTA, 0.1% Triton 100×, pH 7.5 supplemented with protease inhibitors (EDTA-free Protease Inhibitor Cocktail Set III, Calbiochem) and phosphatase inhibitors (Phosphatase Inhibitor Cocktail Set II, Calbiochem)). The samples were centrifuged at 15,000 g and the supernatant was quantified by the Bradford method. The samples were all diluted to the same concentration with a lysis buffer and loading buffer (Laemmli buffer) and denatured for 5 minutes at 95° C. […] Selectivity against MNK was analysed with ERK, p-ERK, MNK1, p-MNK1, 4EBP1 and p-4EBP1 antibodies. […]"}, "MCF7 cells": {"tested_on": "MCF7 cells", "assay": "cell growth of MCF7 cells with tamoxifen (crystal violet)", "type": "cell-based", "details": "combination with tamoxifen", "protocol": "as §4\nCell growth in the presence of EB1, tamoxifen or the combination of both inhibitors was measured by crystal violet. Data were normalized to the vehicle control."}, "MCF10 cells": {"tested_on": "MCF10 cells", "assay": "in vitro proliferation assay (crystal violet), MCF10", "type": "cell-based", "details": "non-tumour cells MCF10, concentrations necessary to inhibit MNK activity", "protocol": "as §1, §5, §6"}}, "data": [{"smiles": "Nc1n[nH]c2nc(-c3ccccc3)cc(-c3ccccc3)c12", "note": "[EB1, 4,6-diphenyl-1H-pyrazolo[3,4-b]pyridin-3-amine]", "values": [{"measurement": "EC50", "setting": "[1]", "value": 700, "unit": "nM"}, {"measurement": "levels of PD-L1", "setting": "[2]; MDA-MB-231, 48 h", "value": "reduces levels of PD-L1"}, {"measurement": "potency on PD-L1 compared with eFT508 and CGP57380", "setting": "[2]; at comparable inhibition rates of eIF4E phosphorylation", "value": "equally potent or superior"}, {"measurement": "effect of co-treatment on cell viability", "setting": "[3]", "value": "synergistic effect"}, {"measurement": "effect on cell growth", "setting": "MDA-MB-231 cells", "value": "does not affect the cell growth"}, {"measurement": "cell death", "setting": "[4]; IMR90, PI/Hoechst staining", "value": "does not induce cell death"}, {"measurement": "cell growth arrest", "setting": "[4]; IMR90, crystal violet", "value": "does not cause significant cell growth arrest"}, {"measurement": "activity as MNK inhibitor (eIF4E phosphorylation)", "setting": "[5]", "value": "active"}, {"measurement": "sensitivity of MCF7 cells to tamoxifen", "setting": "MCF7 cells", "value": "increased sensitivity to tamoxifen"}, {"measurement": "effect on cell growth", "setting": "MCF10 cells", "value": "does not affect the cell growth"}]}]}
